In the NIST ThermoML archive (doi:10.1021/je700288s):
Where “and” joins values, the source holds several entries; their conditions need not be identical. Equal entries are not always repeated. Numbers after ± are expanded uncertainties.

What was measured:
[1] = mn = molality of the nth substance listed, in mol/kg; conditions: 101 kPa, Liquid; for speed of sound: Sing-around technique in a fixed-path interferometer; for mass density: Vibrating tube method
[2] = 283.15 K; 101 kPa; Liquid; Vibrating tube method

C[C@H](N)C(=O)O [(S)-2-aminopropanoic acid] + O
[1]
Conditions	mass density, m1 = 0.23	mass density, m1 = 0.47	mass density, m1 = 0.72	speed of sound, m1 = 0.23	speed of sound, m1 = 0.47	speed of sound, m1 = 0.72
283.15 K	1006.29 ± 0.12 kg/m3 and 1006.34 ± 0.12 kg/m3	1012.74 ± 0.13 kg/m3 and 1012.69 ± 0.13 kg/m3	1018.71 ± 0.14 kg/m3 and 1019.09 ± 0.14 kg/m3	1464.4 ± 1.1 m/s and 1464.1 ± 1.1 m/s	1480.4 ± 1.1 m/s and 1480.5 ± 1.1 m/s	1496.7 ± 1.2 m/s and 1495.8 ± 1.2 m/s
288.15 K	1005.65 ± 0.12 kg/m3 and 1005.61 ± 0.12 kg/m3	1011.96 ± 0.13 kg/m3 and 1011.92 ± 0.13 kg/m3	1017.87 ± 0.14 kg/m3 and 1018.24 ± 0.14 kg/m3	1482 ± 1.1 m/s and 1481.8 ± 1.1 m/s	1497.6 ± 1.1 m/s and 1497.4 ± 1.1 m/s	1512.2 ± 1.2 m/s and 1513 ± 1.2 m/s
293.15 K	1004.68 ± 0.12 kg/m3 and 1004.64 ± 0.12 kg/m3	1010.93 ± 0.13 kg/m3 and 1010.89 ± 0.13 kg/m3	1016.77 ± 0.14 kg/m3 and 1017.14 ± 0.14 kg/m3	1497.7 ± 1.1 m/s and 1497.4 ± 1.1 m/s	1512.4 ± 1.1 m/s and 1512.6 ± 1.1 m/s	1527.5 ± 1.2 m/s and 1526.7 ± 1.2 m/s
298.15 K	1003.46 ± 0.12 kg/m3 and 1003.43 ± 0.12 kg/m3	1009.62 ± 0.13 kg/m3 and 1009.66 ± 0.13 kg/m3	1015.82 ± 0.14 kg/m3 and 1015.45 ± 0.14 kg/m3	1511.4 ± 1.1 m/s and 1511.1 ± 1.1 m/s	1525.6 ± 1.1 m/s and 1525.8 ± 1.1 m/s	1540.1 ± 1.2 m/s and 1539.4 ± 1.2 m/s
303.15 K	1001.98 ± 0.12 kg/m3 and 1002.01 ± 0.12 kg/m3	1008.13 ± 0.13 kg/m3 and 1008.17 ± 0.13 kg/m3	1014.29 ± 0.14 kg/m3 and 1013.92 ± 0.14 kg/m3	1523.3 ± 1.1 m/s and 1523.1 ± 1.1 m/s	1537.1 ± 1.1 m/s and 1537.2 ± 1.1 m/s	1551 ± 1.2 m/s and 1550.3 ± 1.2 m/s
308.15 K	1000.33 ± 0.12 kg/m3 and 1000.36 ± 0.12 kg/m3	1006.44 ± 0.13 kg/m3 and 1006.48 ± 0.13 kg/m3	1012.57 ± 0.14 kg/m3 and 1012.19 ± 0.14 kg/m3	1533.6 ± 1.1 m/s and 1533.3 ± 1.1 m/s	1546.9 ± 1.1 m/s and 1547 ± 1.1 m/s	1560.4 ± 1.2 m/s and 1559.7 ± 1.2 m/s

O [water]
Conditions	mass density [kg/m3]
[2]	999.699 ± 0.1
